# Assay results reported in US20150320823A1, “NOVEL USE OF RICE, RICE BRAN OR RICE HULL EXTRACT AS AN HISTAMINE RECEPTOR ANTAGONIST” (KOREA FOOD RESEARCH INSTITUTE, priority 2011, published 2015).
# Tested on: GABAA-benzodiazepine receptor
# Assay: Sleep-improving mechanism: pentobarbital sleep test with GABAA-benzodiazepine antagonist flumazenil (FLU)
# Format: in vivo
# Conditions: mouse; FLU 8 mg/kg i.p. 10 min before sample p.o. (DZP 0.5 mg/kg; BEE 500 mg/kg); pentobarbital 45 mg/kg 45 min later
smiles,measurement,value
"CN1C(=O)CN=C(c2ccccc2)c2cc(Cl)ccc21 [DZP, diazepam]","effect of flumazenil (FLU) on the sleep-improving effect (sleep latency, sleep duration)",had an effect
